Reference: patent US20220154242A1, “METHOD FOR MODIFYING SUBSTRATE SPECIFICITY OF GLUCOSE DEHYDROGENASE AND AGENT FOR MODIFYING SUBSTRATE SPECIFICITY OF GLUCOSE DEHYDROGENASE” (KIKKOMAN CORPORATION, priority 2019, published 2022)

Key:
[1] = test system: GLD1 (glucose dehydrogenase (FAD-dependent), BBI Solutions); assay: Maltose/glucose response current ratio, IPPD/GLD1-immobilized screen-printed electrode (chronoamperometry); assay type: biochemical, Aspergillus; details: for Maltose/Glucose (%) / Relative value (%) of Maltose/Glucose: 5 mM additive; for Maltose/Glucose (%): 1 mM maltose, 1 mM glucose; for Relative value (%) of Maltose/Glucose: no modifier = 100%
Description: (§1) The ratio (Mal/Glu) of the reactivity of the glucose dehydrogenase to maltose (Mal) relative to the reactivity thereof to glucose (Glu) can be determined by the following procedures. Onto a printed carbon electrode, N-isopropyl-N′-phenyl-p-phenylenediamine (IPPD) is immobilized by adsorption and a glucose dehydrogenase is immobilized by cross-linking using glutaraldehyde, wherein the glucose dehydrogenase is, for example, a glucose dehydrogenase from a microorganism of the genus Mucor or a glucose dehydrogenase from a microorganism of the genus Aspergillus. Chronoamperometry is performed by using a three-electrode system composed of a working electrode, a counter electrode, and a reference electrode and applying a potential of +250 mV (Ag/AgCl). Once the current value has become sufficiently constant, maltose is added to a final concentration of 1 mM in phosphate-buffered saline (PBS) (for example, maltose is added 100 seconds after the start of measurement). Next, once the current value has become sufficiently constant again after the addition of maltose, glucose is added to a final concentration of 1 mM in phosphate-buffered saline (PBS) (for example, glucose is added 100 seconds after the addition of maltose). The substrate specificity of glucose dehydrogenase can be evaluated by measuring the reactivity thereof to maltose when the reactivity thereof to glucose is considered as 100%. In the present specification, the ratio of the reactivity to maltose (Mal) relative to the reactivity to glucose (Glu) may be denoted as Mal/Glu. When the reactivity is evaluated based on the response current(s), the ratio of the reactivity may be expressed as the ratio of the response current(s).
(§2) 10 μL of 12 mg/ml MpGDH purified preparation, 10 μL of 15 mM each glucose analog, and 10 μL of 20 mM potassium phosphate buffer were mixed and allowed to stand for 2 hours or longer. N-isopropyl-N′-phenyl-p-phenylenediamine (IPPD) was immobilized by adsorption onto screen-printed electrodes (manufactured by DropSens, Product number: DRP-C110) and 12 μg of each MpGDH was applied to the electrodes and allowed to dry at room temperature. Lastly, the electrodes were placed in 25% glutaraldehyde vapor and the resulting electrodes were washed with pure water to obtain IPPD.MpGDH-immobilized electrodes. Next, the electrode was connected to an ALS electrochemical analyzer 814D via a dedicated connector (DRP-CAC). Then, the IPPD.GDH-immobilized electrode, an Ag/AgCl reference electrode, and a platinum counter electrode were immersed in PBS and chronoamperometric measurement was carried out. The applied voltage was set to +250 mV (Ag/AgCl). Once the current value had become sufficiently constant (about 100 seconds after the start of measurement), maltose was added to a final concentration of 1 mM in PBS. Next, subsequently to the addition of the maltose solution, once the current value had become sufficiently constant again (about 100 seconds after the addition of maltose), a glucose solution was added to a final concentration of 1 mM. The difference in the response current before and after the addition of maltose was recorded as the response current value of maltose, and the difference in the response current before and after the addition of glucose was recorded as the response current value of glucose. The value calculated by dividing the response current value of maltose by the response current value of glucose was expressed as maltose/glucose (%). […] Furthermore, when the maltose/glucose of MpGDH in the absence of a substrate specificity modifier is considered as 100%, the value in the presence of D-glucal became 69%, and the substrate specificity was modified.
In the same manner, glucose dehydrogenase (FAD-dependent) (from BBI Solutions, Product Code: GLD1, hereinafter denoted as GLD1) was used to examine the effect of the substrate specificity modifier.

[2] = test system: MrdGDH; assay: Maltose/glucose response current ratio, unimmobilized MrdGDH with mPMS (chronoamperometry); assay type: biochemical, Mucor RD056860
Description: (§3) 10 μL of 12 mg/ml MpGDH purified preparation, 10 μL of 15 mM each glucose analog, and 10 μL of 20 mM potassium phosphate buffer were mixed and allowed to stand for 2 hours or longer. Onto screen-printed electrodes (manufactured by DropSens, Product number: DRP-C110), 80 μL of PBS, 5 μL of each MpGDH solution, and 10 μL of 2 mg/ml mPMS solution were applied and mixed. Chronoamperometric measurement was carried out at an applied voltage of +100 mV (Ag/Ag+). Once the current value had become sufficiently constant (about 100 seconds after the start of measurement), a maltose solution was added to a final concentration of 5 mM and mixed by pipetting up and down. Measurement was stopped once the current value had become sufficiently constant. The difference in the response current before and after the addition of maltose was regarded as the response current value of maltose. In contrast, when an equivalent amount of pure water was added instead of the maltose solution, increase in the response current was not observed. The used printed electrode was thoroughly washed with ultrapure water and dried, and then chronoamperometric measurement was carried out in the same manner as above. A glucose solution was added instead of the maltose solution and the response current value of glucose was measured. The value calculated by dividing the response current value of maltose by the response current value of glucose was expressed as maltose/glucose (%).
In the same manner, MrdGDH was used to examine the effect of the substrate specificity modifier.

[3] = test system: Wild type MpGDH; assay: Maltose/glucose response current ratio, MWCNT/DPPD/MpGDH-immobilized carbon cloth electrode (chronoamperometry); assay type: biochemical, Mucor prainii; details: for Maltose/Glucose Relative value (%): 50 mM additive, wild type MpGDH on carbon cloth electrode, no modifier = 100%; for Modification of substrate specificity of GDH: carbon cloth electrode, MpGDH
Description: The cloth was thoroughly dried and then washed with ultrapure water. Subsequently, 40 mg/ml wild type MpGDH and 20 μl of 100 mM various glucose analogs dissolved in ultrapure water were mixed in equal proportions, and 20 μl of the resulting solution was applied to the […] immobilized electrode. After being allowed to dry at room temperature, the electrode was placed in 25% glutaraldehyde vapor for 20 minutes to immobilize MpGDH by cross-linking. Then, the electrode was subjected to washing with ultrapure water in the same manner as above to obtain an […]-immobilized electrode. Next, this electrode was connected to an ALS electrochemical analyzer […]. Then, the […]-immobilized electrode, an Ag/AgCl reference electrode, and a platinum counter electrode were immersed in PBS, and chronoamperometric measurement was carried out. The applied voltage was set to +250 mV (Ag/AgCl). […] The difference in the response current before and after the addition of maltose was recorded as the response current value of maltose, and the difference in the response current before and after the addition of glucose was recorded as the response current value of glucose. The value calculated by dividing the response current value of maltose by the response current value of glucose was expressed as maltose/glucose (%). […] An […]-immobilized electrode was made in the same manner as Example 4 except that the application step was altered. That is, 20 μl of 40 mg/ml wild type MpGDH was mixed with 10 μl each of 100 mM glycerol and 100 mM L-iditol dissolved in ultrapure water, and 20 μl of the resulting solution was applied to the […] immobilized electrode for the application step. Then, chronoamperometric measurement was carried out according to the method described in Example 4, and the maltose/glucose (%) was calculated.

[4] = test system: MpGDH; assay: Maltose/glucose response current ratio, unimmobilized MpGDH with mPMS (chronoamperometry); assay type: biochemical, Mucor prainii; details: for maltose/glucose relative to MpGDH considered as 100%: unimmobilized MpGDH, mPMS, 5 mM maltose, +100 mV
Description: as §3

[5] = test system: Wild type MpGDH; assay: Maltose/glucose response current ratio, IPPD/MpGDH-immobilized screen-printed electrode (chronoamperometry); assay type: biochemical, Mucor prainii
Description: as §1, §2

[6] = test system: GLD1 (glucose dehydrogenase (FAD-dependent), BBI Solutions); assay: Maltose/glucose response current ratio, unimmobilized GLD1 with mPMS (chronoamperometry); assay type: biochemical, Aspergillus; details: for Maltose/Glucose (%) / Relative value (%) of Maltose/Glucose: 5 mM additive; for Maltose/Glucose (%): mPMS; for Relative value (%) of Maltose/Glucose: no modifier = 100%
Description: as §3
In the same manner, GLD1 was used to examine the effect of the substrate specificity modifier.

| Compound | Modification of substrate specificity [1] | Maltose/Glucose (%) [1] | Relative value (%) of Maltose/Glucose [1] | Modification of substrate specificity [2] | Maltose/Glucose (%) ([2]; 5 mM additive, mPMS) | Relative value (%) of Maltose/Glucose ([2]; 5 mM additive, no modifier = 100%) | Maltose/Glucose Relative value (%) [3] | Modification of substrate specificity of GDH [3] | maltose/glucose relative to MpGDH considered as 100% [4] | Maltose/Glucose (%) ([5]; 5 mM additive, immobilized wild type MpGDH, 1 mM maltose, 1 mM glucose, +250 mV) | Relative value (%) of Maltose/Glucose ([5]; 5 mM additive, immobilized wild type MpGDH, no modifier = 100%) | Modification of substrate specificity ([5]; immobilized MpGDH) | Modification of substrate specificity [6] | Maltose/Glucose (%) [6] | Relative value (%) of Maltose/Glucose [6] | Acts as substrate specificity modifier ([4]; enzyme not immobilized) |
| --- | --- | --- | --- | --- | --- | --- | --- | --- | --- | --- | --- | --- | --- | --- | --- | --- |
| O=C[C@@H](O)[C@@H](O)[C@H](O)[C@@H](O)CO [L-gulose] | modified the substrate specificity | 0% | 0% | modified the substrate specificity | 28% | 90% | 62% | modified the substrate specificity | 56% | 0.34% | 74% | modified the substrate specificity | modified the substrate specificity | 0.23% | 70% | – |
| OC[C@H](O)[C@@H](O)[C@H](O)[C@@H](O)CO [L-iditol] | modified the substrate specificity | 0% | 0% | – | – | – | 58% | modified the substrate specificity | 68% | – | – | – | modified the substrate specificity | 0.25% | 76% | act as a substrate specificity modifier |
